The term IC50 denotes the concentration that gives 50% inhibition.

The subject of data set [1] is human HCC cell line HepG2. The data set is described as follows: cells. As to conditions: 72 h; for IC50: Homo sapiens, HepG2, 72 h, neutral red, Supplementary Table 2, read-out: Anticancer (HepG2) IC50; for (LD0) HepG2 / Safe doses (100% viability of HepG2) LD0: human. The data set is classed as cell-based.
The nature of the next data set: In vitro hemolytic assay. The data set is classed as cell-based. As to conditions: 2% erythrocyte suspension (washed red blood cells); 2% erythrocyte suspension, 3 μl of 1 mg/ml compound in DMF per 240 μl well, 37°C 30 min, absorbance 405 nm; <5% considered nontoxic. Summed up: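 Washed erythrocytes as a 2% suspension in 0.9% NaCl, mixed with compound from a 1 mg/ml DMF stock, triplicate, 37°C for 30 min. Haemoglobin released into the supernatant read at 405 nm against distilled-water lysis (100%) and isotonic buffer (0%).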

The structures appear in SMILES notation. ≈ marks a conversion by molar mass, not a printed value.

Consider `CC(=NN=C1SC(=C2C(=O)Nc3ccccc32)C(=O)N1c1ccccc1)c1nc2ccccc2[nH]1` [Compound 6e, 2-[1-(1H-Benzimidazole-2-yl)ethylidenehydrazono]-5-(2-oxoindolin-3-ylidene)-3-phenylthiazolidin-4-one], for which, in data set [1], the IC50 was 110 µg/mL (≈ 231 µM), the “(LD0) HepG2” value turned out to be 16.75 µg/mL and the “Safe doses (100% viability of HepG2) LD0” value came to 16.75 µg/mL. In the data set “In vitro hemolytic assay”, this molecule returned a hemolysis at 30 min, 12.5 µg/ml of 4.51%.

`CC(=NN=C1SC(=C2C(=O)Nc3ccccc32)C(=O)N1c1ccc(Cl)cc1)c1nc2ccccc2[nH]1` [Compound 6f, 2-[1-(1H-Benzimidazole-2-yl)ethylidenehydrazono]-5-(2-oxoindolin-3-ylidene)-3-(4-chlorophenyl)thiazolidin-4-one]: in data set [1], the IC50 amounted to 154 µg/mL (≈ 300 µM), the “(LD0) HepG2” value was found to be 35.33 µg/mL and the “Safe doses (100% viability of HepG2) LD0” value came out at 35.33 µg/mL. The molecule also showed a hemolysis at 30 min, 12.5 µg/ml in “In vitro hemolytic assay” of 1.01%.

In the case of `COc1ccc(N2C(=O)C(=C3C(=O)Nc4ccccc43)SC2=NN=C(C)c2nc3ccccc3[nH]2)cc1` [Compound 6g, 2-[1-(1H-Benzimidazole-2-yl)ethylidenehydrazono]-5-(2-oxoindolin-3-ylidene)-3-(4-methoxyphenyl)thiazolidin-4-one], in data set [1], the IC50 was found to be 248 µg/mL (≈ 487 µM), the “(LD0) HepG2” value stood at 18.62 µg/mL and the “Safe doses (100% viability of HepG2) LD0” value was determined as 18.62 µg/mL. The molecule also had a hemolysis at 30 min, 12.5 µg/ml in “In vitro hemolytic assay” of 2.65%.

Source of the values: paper PMC5729604, “Dual inhibitors of hepatitis C virus and hepatocellular carcinoma: design, synthesis and docking studies” (Future Science OA, 2017).
